Assay results: PMC11292196 (Cancer Research, 2024)
Where two headings read alike, the source gives them in different places.

Key:
[1] = system: KARPAS-422 xenograft tumors; assay: KARPAS-422 xenograft efficacy study; format: in vivo; details: KARPAS-422 mouse xenograft model; 25 mg/kg, PO, QD
[2] = system: HT1376 cells; assay: Cell viability assay; format: cell-based
[3] = system: Cal29 cells; assay: Cell viability assay; format: cell-based; details: read-out: Cisplatin GI50 (d5), 5-day viability assay
[4] = system: KMBC2 cells; assay: Cell viability assay; format: cell-based; details: read-out: Cisplatin GI50 (d5), 5-day viability assay
[5] = system: JMSU1 cells; assay: Cell viability assay; format: cell-based; details: read-out: Cisplatin GI50 (d5), 5-day viability assay
[6] = system: HT1197 cells; assay: Cell viability assay; format: cell-based; details: read-out: Cisplatin GI50 (d5), 5-day viability assay
[7] = system: SCaBER cells; assay: Cell viability assay; format: cell-based; details: read-out: Cisplatin GI50 (d5), 5-day viability assay
[8] = system: RT4 cells; assay: Cell viability assay; format: cell-based; details: read-out: Cisplatin GI50 (d5), 5-day viability assay
[9] = system: BFTC905 cells; assay: Cell viability assay; format: cell-based; details: read-out: Cisplatin GI50 (d5), 5-day viability assay
[10] = system: T24 cells; assay: Cell viability assay; format: cell-based; details: read-out: Cisplatin GI50 (d5), 5-day viability assay
[11] = system: UMUC3 cells; assay: Cell viability assay; format: cell-based; details: read-out: Cisplatin GI50 (d5), 5-day viability assay
[12] = system: SW1710 cells; assay: Cell viability assay; format: cell-based; details: read-out: Cisplatin GI50 (d5), 5-day viability assay
[13] = system: TCCSUP cells; assay: Cell viability assay; format: cell-based; details: read-out: Cisplatin GI50 (d5), 5-day viability assay
[14] = system: J82 cells; assay: Cell viability assay; format: cell-based; details: read-out: Cisplatin GI50 (d5), 5-day viability assay
[15] = read-out: GI50, long-term cell viability assay, HT1376 cells, day 18

SMILES: CCN(c1cc(-c2ccc(CN3CCOCC3)cc2)cc(C(=O)NCc2c(C)cc(C)[nH]c2=O)c1C)C1CCOCC1 [Tazemetostat]
- tumor response [1]: modest TGI

SMILES: Cc1ncccc1-c1cnc(NCc2c(F)ccc3c2CCO3)n2cnnc12 [MAK683]
- GI50 [2, 15]: 73 nM

SMILES: N.N.[Cl][Pt][Cl] [Cisplatin]
- GI50 [3]: 3010 nM
- GI50 [4]: 3640 nM
- GI50 [5]: 730 nM
- GI50 [6]: 3880 nM
- GI50 [7]: 1200 nM
- GI50 [8]: 3050 nM
- GI50 [9]: 760 nM
- GI50 [10]: 810 nM
- GI50 [11]: 350 nM
- GI50 ([2]; read-out: Cisplatin GI50 (d5), HT1376, 5-day viability assay): 1950 nM
- GI50 [12]: 2150 nM
- GI50 [13]: 220 nM
- GI50 [14]: 450 nM

SMILES: COc1cc(C)[nH]c(=O)c1CN1CCc2c(Cl)cc([C@H](OC)C3COC3)c(Cl)c2C1=O [PF-06821497]
- GI50 [2, 15]: ~5 nM
